# According to patent publication US12427134B2, “Methods of reducing the risk of cardiovascular events in a subject with atrial fibrillation and/or atrial flutter” (priority 2019, dated 2025):
# Where two headings read alike, the source gives them in different places.
# Columns and labels:
# [1] = tested on: hypertriglyceridemic patients with cardiovascular disease or at high risk for cardiovascular disease; details: human, in vivo
# Protocol: The following clinical events that were positively adjudicated by the Clinical Endpoint Committee were analyzed as tertiary endpoints for the ITT intent-to-treat (ITT) population: • Composition of total mortality, or congestive heart failure (CHF); • Composite of CV death, or new CHF; • Sudden cardiac death; • Peripheral artery disease (PAD); and • Atrial fibrillation, or atrial flutter.
# Definition of Cardiac Arrhythmia Requiring Hospitalization: An arrhythmia that either results in hospitalization (≥24 hours) during or within 24 hours of the termination of the last episode for treatment or requires continued hospitalization for treatment, including any one of the following: • Atrial arrhythmia—atrial fibrillation, atrial flutter, supraventricular tachycardia that requires cardio-version, drug therapy, or is sustained for greater than 1 minute; • Ventricular arrhythmia—Ventricular tachycardia or ventricular fibrillation requiring cardio-version and/or intravenous antiarrhythmics; and/or • Bradyarrhythmia—High-level AV block (defined as third-degree AV block or second-degree AV block), junctional or ventricular escape rhythm, or severe sinus bradycardia (typically with heart rate <30 bpm). The bradycardia must require temporary or permanent pacing.
# The objective of the following study was to determine how icosapent ethyl affected the incidence of atrial fibrillation and/or flutter in patients from the REDUCE-IT trial, as described in Example 1.
# Although not pre-specified as TEAEs of special interest, atrial fibrillation and atrial flutter were also explored post hoc as potential safety signals as discussed above in Example 7. A summary of TEAEs and SAEs of atrial fibrillation/flutter is presented in Table 83, along with positively adjudicated atrial fibrillation/flutter requiring hospitalization of ≥24 hours as a comprehensive compilation of all documented post-randomization occurrences of these atrial arrhythmias. Occurrences of atrial fibrillation or flutter not meeting endpoint criteria (i.e., not positively adjudicated as endpoints) were counted as TEAEs or SAEs, per seriousness criteria.
# [2] = tested on: hypertriglyceridemic patients with cardiovascular disease or at high risk for cardiovascular disease; details: human, in vivo; remark: listed apart in the source
# Description: Compliance Control: Unless clear contraindications arise, patients were strongly encouraged to adhere to their treatment regimen with the study drug for the duration of the trial. Any interruptions of therapy were, if possible, brief (e.g., <4 weeks) and only for clinically indicated reasons, such as adverse events. Discontinuations were discouraged as much as possible. Any discontinuations were based on compelling clinical reasons. For every patient, an assessment of compliance to the study drug treatment regimen was obtained at each scheduled visit. Study medication was dispensed in amounts exceeding the amount required for the study. Patients were instructed to return all unused study medication at the next visit. Compliance to the study drug regimen was evaluated at each visit by counting unused capsules. Discrepancies were evaluated and discussed with each patient to assess compliance. […] At the end of the study, the final study medication compliance was determined by unused capsule count. […]
# Occurrence of an outcome event according to the judgment of the investigator was not considered a valid reason for study drug discontinuation. Patients whose treatment with study medication was discontinued early, and had not withdrawn consent, stayed in the study and were monitored until the end of the study. […]
structure (smiles),measurement,setting,value
"CC/C=C\C/C=C\C/C=C\C/C=C\C/C=C\CCCC(=O)OCC [AMR101, eicosapentaenoic acid ethyl ester]","Adjudicated as Bradycardia/Heart Block (without Hosp. ≥24 hrs), patients (%)",[1],(0.0) %
same,"Adjudicated as VTA/F (without Hosp. ≥24 hrs), patients (%)",[1],(0.0) %
same,"Atrial fibrillation TEAE, Event Rate",[1],5.3%
same,"Atrial fibrillation TEAE, Number of Subjects",[1],215
same,"Atrial fibrillation and/or flutter adverse events, SAEs",[1],0.5%
same,"Atrial fibrillation and/or flutter adverse events, TEAEs",[1],5.8%
same,"Atrial fibrillation or atrial flutter requiring hospitalization of ≥24 hours, patients with event",[1],3.1%
same,"Atrial fibrillation/flutter AEs, %",[1],(7.7) %
same,"Atrial fibrillation/flutter AEs, (%)",[1],5.8%
same,"Atrial fibrillation/flutter SAEs (not positively adjudicated as endpoints), patients",[1],0.6%
same,"Atrial fibrillation/flutter TEAEs (not positively adjudicated as endpoints), patients",[1],7.7%
same,Positively Adjudicated Atrial Fibrillation/Flutter (requiring hospitalization),[1],127 (3.1%) n (%)
same,"Positively adjudicated Afib/Aflutter requiring ≥24 hours hospitalization, (%)",[1],3.1%
same,"Positively adjudicated atrial fibrillation/flutter requiring ≥24 hours hospitalization, %",[1],(3.1) %
same,"Serious Afib/Aflutter AEs, (%)",[1],0.5%
same,"Serious atrial fibrillation/flutter AEs, %",[1],(0.6) %
same,Subjects with at least one Atrial Fibrillation/Atrial Flutter event,[1],321
same,"Treatment-emergent atrial fibrillation (Serious), Event Rate",[1],0.5%
same,"Treatment-emergent atrial fibrillation (Serious), Number of Subjects",[1],21
same,"Treatment-emergent atrial fibrillation, Event Rate",[1],5.3%
same,"Treatment-emergent atrial fibrillation, Number of Subjects",[1],215
same,"Treatment-emergent atrial flutter (Serious), Event Rate",[1],0.0%
same,"Treatment-emergent atrial flutter (Serious), Number of Subjects",[1],1
same,"Treatment-emergent atrial flutter, Event Rate",[1],0.8%
same,"Treatment-emergent atrial flutter, Number of Subjects",[1],32
same,"First onset of atrial fibrillation and/or flutter, Icosapent Ethyl-Placebo Risk Diff., % (95% CI)",[1]; 0.5 years,−0.00%
same,"First onset of atrial fibrillation and/or flutter, Icosapent Ethyl-Placebo Risk Diff., % (95% CI)",[1]; 1 year,0.20%
same,"First onset of atrial fibrillation and/or flutter, Icosapent Ethyl-Placebo Risk Diff., % (95% CI)",[1]; 1.5 years,0.51%
same,"First onset of atrial fibrillation and/or flutter, Icosapent Ethyl-Placebo Risk Diff., % (95% CI)",[1]; 2 years,0.59%
same,"First onset of atrial fibrillation and/or flutter, Icosapent Ethyl-Placebo Risk Diff., % (95% CI)",[1]; 2.5 years,0.78%
same,"First onset of atrial fibrillation and/or flutter, Icosapent Ethyl-Placebo Risk Diff., % (95% CI)",[1]; 3 years,0.83%
same,"First onset of atrial fibrillation and/or flutter, Icosapent Ethyl-Placebo Risk Diff., % (95% CI)",[1]; 3.5 years,1.17%
same,"First onset of atrial fibrillation and/or flutter, Icosapent Ethyl-Placebo Risk Diff., % (95% CI)",[1]; 4 years,1.23%
same,"First onset of atrial fibrillation and/or flutter, Icosapent Ethyl-Placebo Risk Diff., % (95% CI)",[1]; 4.5 years,1.00%
same,"First onset of atrial fibrillation and/or flutter, Icosapent Ethyl-Placebo Risk Diff., % (95% CI)",[1]; 5 years,1.08%
same,"First onset of atrial fibrillation and/or flutter, Icosapent Ethyl-Placebo Risk Diff., % (95% CI)",[1]; 5.5 years,1.00%
same,"Positively adjudicated atrial fibrillation and/or flutter, incidence",[1]; 6 months,0.3%
same,"First onset of atrial fibrillation and/or flutter, Icosapent Ethyl-Placebo Risk Diff., % (95% CI)",[1]; 6 years,2.07%
same,Early study drug discontinuation: adverse event,[2],9.2%
